How the values were obtained:
[1] = Inhibitory activity against HIV-1 RT with poly.rC-oligo.dG template primer
[2] = molecular target: Reverse transcriptase (Human immunodeficiency virus 2); test: Inhibitory activity against HIV-2 reverse transcriptase

Row | SMILES | IC50 [1] | IC50 [2]
1 | O=S(=O)(c1ccccc1)c1c(-c2nc3c([nH]2)CCCC3)[nH]c2ccc(Cl)cc12 [2-(3-Benzenesulfonyl-5-chloro-1H-indol-2-yl)-4,5,6,7-tetrahydro-1H-benzoimidazole] | 8.1 nM | –
2 | O=S(=O)(c1ccccc1)c1c(C2=NCCCN2)[nH]c2ccc(Cl)cc12 [3-Benzenesulfonyl-5-chloro-2-(1,4,5,6-tetrahydro-pyrimidin-2-yl)-1H-indole] | 2290 nM | –
3 | CCc1nc(-c2[nH]c3ccc(Cl)cc3c2S(=O)(=O)c2ccccc2)[nH]c1CC [3-Benzenesulfonyl-5-chloro-2-(4,5-diethyl-1H-imidazol-2-yl)-1H-indole] | 10 nM | –
4 | O=S(=O)(c1ccccc1)c1c(C2=NCCS2)[nH]c2ccc(Cl)cc12 [3-Benzenesulfonyl-5-chloro-2-(4,5-dihydro-thiazol-2-yl)-1H-indole] | 17 nM | > 300000 nM
5 | Cc1nc(-c2[nH]c3ccc(Cl)cc3c2S(=O)(=O)c2ccccc2)[nH]c1C [3-Benzenesulfonyl-5-chloro-2-(4,5-dimethyl-1H-imidazol-2-yl)-1H-indole] | 5.1 nM | > 300000 nM
6 | CC1(C)CN=C(c2[nH]c3ccc(Cl)cc3c2S(=O)(=O)c2ccccc2)N1 [3-Benzenesulfonyl-5-chloro-2-(5,5-dimethyl-4,5-dihydro-1H-imidazol-2-yl)-1H-indole] | 50 nM | –
7 | O=S(=O)(c1ccccc1)c1c(-n2ccnc2)[nH]c2ccc(Cl)cc12 [3-Benzenesulfonyl-5-chloro-2-imidazol-1-yl-1H-indole] | 2380 nM | –
8 | O=S(=O)(c1ccccc1)c1c(C2=N[C@H]3CCCC[C@@H]3N2)[nH]c2ccc(Cl)cc12 [(3aS,7aS)-2-(3-Benzenesulfonyl-5-chloro-1H-indol-2-yl)-3a,4,5,6,7,7a-hexahydro-1H-benzoimidazole] | 29 nM | –
